On to `C=CCOC(=O)NC12CC3CC(CC(C3)C1)C2`, for which the melting point is 56 to 58 °C.
`COc1cc2cn(N3C(C)CCCC3C)nc2cc1OC` (stereo unspecified) yielded a melting point of 162 to 163 °C.
`Fc1cccc(C2=NOCCS2)c1` displayed a melting point of 47 to 49 °C.
The value for `COc1ccc(CCNc2cc(-c3ccco3)nc(-c3nccs3)n2)cc1OC` was 83 to 83.8 °C; that for `O=C(O)c1ccc(CCCC2SCC(=O)N2CCCC2(O)CCCCC2)cc1` (stereo unspecified) was 118 to 121 °C; that for `COc1cc(C)c(CCCCCCCCCCCCCCCCCCOC(C)=O)c(O)c1OC` was 53 °C.
`CC1=C(C)C(Cc2csc3ccccc23)N(C)C=C1` (stereo unspecified) registered a melting point of 185 to 190 °C.
Take `Cc1cc(N2NCCNC2=O)cc(Cl)c1Cc1ccc(Cl)cc1`: the melting point fell in the range of 197 to 198 °C.
Consider `NNc1ccnc(-c2ccc([N+](=O)[O-])o2)n1`, for which the melting point was 220 to 222 °C.
The same measure for `O=C(O)CN1C(=O)C(=Cc2ccccc2)SC1=S`: 254 to 256 °C; for `CCN1CCC(OC)(c2cccc(F)c2F)C1` (single isomer, unassigned; (+)): 104 to 106 °C.
The value for `CCOC(=O)CNC(=O)Nc1c(-c2ccccc2OC)c2ccccc2c(=O)n1C` was 128 to 130 °C.
Regarding `O=C(O)CCCC=C1CCCCCCCCCCC1`, the melting point is 70 to 72 °C.
The same measure for `CC(=O)CC(=O)OCN1C(=O)c2ccccc2C1=O`: 106 to 109 °C.
For the molecule `CCCC(c1ccccc1)c1ccc(-c2cnn3c(O)ncnc23)cc1` (stereo unspecified), the melting point fell in the range of 280 to 285 °C.
The value for `CC1(C)CCC(C)(C)c2cc(C(=O)CNc3ccc(C(=O)O)cc3)ccc21` was 168 to 169 °C; that for `CCOC(=O)C1(O)C=CN=c2ccc3c(c21)NCN=3` (stereo unspecified) was 315 to 316 °C.
The same measure for `O=C(CC1C(=S)Nc2ccccc21)NCc1ccccc1` (stereo unspecified): 193 to 195 °C; for `O=C(O)COc1c(F)cc(SCCNS(=O)(=O)c2ccccc2)cc1F`: 91 to 93 °C; for `Nc1ccc(C23CC(C2)C(=O)N(Cc2ccccc2)C3=O)cc1`: 164 to 166 °C.
For the molecule `O=C(Cl)CCS(=O)(=O)CCCl`, the melting point was 73 to 75 °C.
For `COc1ccc(Nc2nc(Cl)nc(NC3CC3)n2)cc1Cl`, the melting point was found to be 172 °C.
The value for `Cc1cc(-n2c(C)ccc2-c2ccc(S(C)(=O)=O)cc2)ccc1-c1ccco1` was 160 to 162 °C; that for `Cc1nn(C)c(C)c1C(=O)Nc1ccc(C(C(F)(F)F)C(F)(F)F)c(CC(C)C)c1` was 148 to 151 °C.
The same measure for `O=C(CCN1CCC(N2Cc3ccccc3C2=O)CC1)c1ccccc1`: 87 to 90 °C; for `CC(=NO)C(C)(C)NCC(CNC(C)(C)C(C)=NO)CC(O)CC1([N+](=O)[O-])N=CC=N1` (stereo unspecified): 185 to 187 °C.
For `CC1c2ccccc2NC(=O)N1CCCl` (stereo unspecified), the melting point was 126 °C.
The same measure for `CCCc1c(OCCCCC#N)ccc(C(=O)c2ccccc2OC)c1O`: 85 to 86.5 °C.
The value for `Cn1c(COc2ccc(CC3SC(=O)NC3=O)cc2)nc2cncnc21` (stereo unspecified) was 244 to 246 °C; that for `COCc1cccc2oc(C(=O)Nc3ccc(-c4ccc(S(=O)(=O)N(C)C(C(=O)O)C(C)C)cc4)cc3)c(C)c12` (stereo unspecified) was 144 to 146 °C; that for `Nc1ccc(C(O)c2ccccn2)c(OCC(F)(F)F)c1` (stereo unspecified) was 97 to 99 °C.
The same measure for `CC(C)(C)CNc1nc(N2CCCC2)cc(N2CCNCC2)n1`: 118 to 120 °C.
On to `CCOc1ccc(OCC(=O)OC(C)(C)C)c2c1C(=O)N(CCl)S2(=O)=O`, for which the melting point lay in the range of 117 to 119 °C.
The same measure for `Cc1ccccc1C(=O)Nc1ccc(C(=O)N2CCCC(OCC(=O)N(C)C)c3ccccc32)cc1` (stereo unspecified): 203 to 204 °C.
The value for `COC(=O)CC1Cc2ccc(OC)cc2NC1=O` (stereo unspecified) was 152 to 155 °C.
The value for `Oc1cccc(-c2cn3ccc4ccccc4c3n2)c1` was 201 to 202 °C; that for `OCC(O)Cc1nccn1CCCCc1ccc(OCc2coc(/C=C/c3ccc(F)cc3)n2)cc1` (stereo unspecified) was 114 to 116 °C.
As to `CC(C)(c1ccc(O)cc1)c1ccc(O)c(C(=O)Oc2ccccc2)c1`, the melting point was found to be 140 °C.
The same measure for `O=C(O)C=Cc1ccc(C=CC(=O)O)c2ccccc12`: 350 to 355 °C.
`CCc1ccccc1N(C=C(C#N)C#N)N=C(C#N)C#N` displayed a melting point of 172 to 174 °C.
The same measure for `COc1cc(CC(=O)NCCOc2ccc(C(=O)O)cc2OC)ccc1NC(=O)Nc1ccccc1C`: 180 to 181 °C; for `O=c1cccc(-c2ccccn2)[nH]1`: 124 to 127 °C; for `CC(=O)N(O)C(C)c1cccc(Nc2ccccc2-c2nnc(N)o2)c1Cl` (stereo unspecified): 142 to 146 °C.
`CC(=O)NCc1ccc2ccn(C3CCN(CCc4ccc(F)cc4)CC3)c2c1`: the melting point was 127 to 128 °C.
In the case of `CCC(C)C(=O)Nc1nn(C)c2c1sc1cc(N)ccc12` (stereo unspecified), the melting point fell in the range of 196 to 197 °C.
The value for `CCc1nc(NC(=O)c2cnn3c(C(F)F)cc(-c4ccc(C(F)(F)F)cc4)nc23)sc1S(=O)(=O)N1CCC(O)C1` (racemic) was 286 °C; that for `O=C(O)CC1CCCc2c1[nH]c1ccc(F)cc21` (stereo unspecified) was 124 to 126 °C; that for `Cc1ccc([C@@H](O)[C@@H]2[C@@H](C)CCCC2(C)C)cc1` was 78 to 79 °C.
The value for `O=C(Nc1ccc(F)cc1)c1ccccn1` was 100 to 103 °C; that for `CS(=O)(=O)c1ccc(-c2cnn(Cc3ccccc3)c(=O)c2-c2ccc(Cl)c(Cl)c2)cc1` was 161 to 163 °C; that for `CCN(CC)C(=O)c1ccc(C(=C2CCNCC2)c2cccc3ccccc23)cc1` was 80 to 85 °C.
The same measure for `O=c1cc(-c2ccc(O)c(F)c2)oc2ccc(CO)cc12`: 256 to 258 °C; for `Cn1c(=O)[nH]c2cnc(-c3ccccc3)nc21`: 286 to 289 °C.
`CCCC1(COC)CCCSc2cc(/C=C/c3ccc(C(=O)O)cc3)ccc21` (stereo unspecified) yielded a melting point of 169 to 170 °C.
Turning to `COC(=O)[C@H](Cc1ccc(NC(=O)c2c(Cl)cccc2Cl)cc1)NC(=O)C1(Cc2ccc(OC)cc2)CCCCC1`, the melting point was 85 to 87 °C.
For the molecule `N#Cc1ccccc1-c1ccc2cc(CBr)ccc2c1`, the melting point was in the range of 171 to 172 °C.
The value for `CN(C(=O)c1nnc2ccccc2c1O)c1ccc(Cl)cc1` was 249 to 253 °C.
The value for `CCOC(=O)/C=C1\CCOc2ccc([N+](=O)[O-])cc21` was 135 °C; that for `CNc1nc(Cl)c(OC(F)F)c(N(C)C)n1` was 127 to 130 °C.
The same measure for `CCOC(=O)CC(=O)c1cc(F)c(OC)nc1Nc1ccc(F)cc1F`: 148 to 149 °C; for `CCCOc1ccc(COCC)cc1-c1nc2c(CCC)nn(C)c2c(=O)[nH]1`: 89 to 90 °C.
`NC(=O)NC1(C(=O)O)CCCc2ncc(Cl)cc21` (stereo unspecified) showed a melting point of 188 to 190 °C.
Molecule `COc1cccc(CN2Cc3cc(OC)c(O)cc3C(O)C2)c1` (stereo unspecified) registered a melting point of 137 to 138 °C.
The same measure for `CC(C)(C(=O)O)n1c(=O)[nH]c2cccc(F)c2c1=O`: 258 to 260 °C; for `COc1ccc(C(=O)NC(CC(C)C)C(=O)O)c(SSc2cc(OC)ccc2C(=O)NC(CC(C)C)C(=O)O)c1` (stereo unspecified): 230 to 231 °C.
The same measure for `COc1ccc(CNc2ccc(Cl)cc2C(=O)C(F)(F)F)cc1`: 82 to 84 °C.
With `CN1C(=O)CC2(Cc3cc4ccccc4n3C2)C1=O` (stereo unspecified), the melting point is 154 to 156 °C.
For the molecule `Cc1c(O)c(=O)[nH]c2ccccc2c1=O`, the melting point came out at 252 °C.
In turn, `O=C(O)c1cn(-c2cc([N+](=O)[O-])c(F)cc2F)c2c(F)c(F)c(F)cc2c1=O` yielded a melting point of 245 to 255 °C.
The same measure for `S=C(NCc1ccccc1)N1CCc2c([nH]c3ccccc23)C1c1ccc2c(c1)OCO2` (stereo unspecified): 205 to 207 °C; for `N#Cc1ccc2c(c1)S(=O)(=O)NCN2C1CC1`: 259 to 261 °C; for `CCC(=O)NCc1ccc2ccn(C3CCN(CCc4ccc(F)cc4)CC3)c2c1`: 141 to 142 °C.
Turning to `OC1CSC(Oc2ccccc2-c2ccno2)C(O)C1O` (stereo unspecified), the melting point stood at 200 °C.
As to `O=C1c2ccccc2S(=O)CC1(CO)CO` (stereo unspecified), the melting point fell in the range of 108 to 111 °C.
Molecule `CCC(C(=O)N(C)C)n1cc(Cl)c(-c2ccccc2)n1` (stereo unspecified) gave a melting point of 94 to 96.5 °C.
`CCCN=C(N)Nc1ccnc(CCCCc2ncc(C)c(O)n2)n1` showed a melting point of 213 to 215 °C.
The same measure for `CC1=C(CNC(=O)NC(C)C)c2cc(F)ccc2/C1=C\c1ccc(S(C)(=O)=O)cc1`: 217 °C; for `CCCC(NS(=O)(=O)c1ccc(Cl)cc1)C(=O)NNC(=S)NC` (stereo unspecified): 191 to 195 °C; for `COc1ccc(N2CCN(Cc3n[nH]c4cc(Cl)ccc34)CC2)cc1`: 182 to 184 °C.
The same measure for `CCCCCCC1=CC(O)(C(Br)Br)NC1=O` (stereo unspecified): 106 to 109 °C.
The same measure for `CCOC(=O)C1(NC(C)=O)CC2c3cc(C)ccc3Oc3ccccc3N2C1=O` (stereo unspecified): 104 to 108 °C; for `CCCCCCC1C(=O)OC2OC3(C)CCC4C(C)CCC1C24OO3` (single isomer, unassigned; (+)): 80.5 to 82 °C.
For `CC(=O)c1cc(S(N)(=O)=O)ccc1O`, the melting point was in the range of 197 to 199 °C.
The value for `COC(=O)CCCc1cc2cc(Cl)ccc2n1S(=O)(=O)c1cccc(OC)c1` was 107 to 109 °C.
With `CC1(C)C(=O)Nc2cc3[nH]cnc3cc21`, the melting point lay within 278 to 280 °C.
Take `Cc1ccc2oc(=O)n(-c3ccnc(NC(=O)NCc4ccccn4)c3)c2c1`: the melting point was in the range of 205 to 206 °C.
The same measure for `COc1ccccc1C(=O)c1cccc(NC(=O)c2ccn3c2CSC3c2cccnc2)c1` (stereo unspecified): 184 °C; for `CCCOc1ccccc1C1=NC(=O)C2=NC(S)=NC2=N1`: 305 to 307 °C.
The same measure for `CCOC(=O)C1=C(N(C)C)N=C(C)C(C(=O)OCC)C1c1cccc(Cl)c1` (stereo unspecified): 79 °C.
The molecule `COc1ccc2c(c1)CC(CCCNCCCSc1nnc(-c3ccccc3)n1C)CC2` (stereo unspecified) returned a melting point of 92 to 95 °C.
As to `CCOP(=O)(OCC)c1ccc(C(=O)O)cc1`, the melting point worked out at 101 °C.

One may read the melting point as the temperature of the solid-liquid transition.

The values are drawn from a melting point compilation (Tetko et al.; mined from patent text by program, amines drawn as free bases though some values may be those of a salt).
